# Reference: PubChem BioAssay AID248 (DTP/NCI, 2004)
# Where “and” joins values, the source holds several entries; their conditions need not be identical. Equal values may be shown once. Toxic doses and inconclusive results are not listed.
# Test system: L1210 leukemia ip in BDF1 mice, survival T/C
# Assay: NCI In Vivo Anticancer Drug Screen. Data for tumor model L1210 Leukemia (intraperitoneal) in B6D2F1 (BDF1) mice
# Conditions: endpoint: mean survival time, higher = longer survival
# Method in brief: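 Ratio derived from survival: compound-dosed mice over vehicle-dosed mice, all bearing a transplantable tumor.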
# [1] = dose: 100.0 mg/kg/injection, schedule: Q01DX009 (ip), vehicle: Klucel (hydroxypropylcellulose) (HPC)
# [2] = dose: 200.0 mg/kg/injection, schedule: Q01DX009 (ip), vehicle: Klucel (hydroxypropylcellulose) (HPC)
# [3] = dose: 100.0 mg/kg/injection, schedule: Q04DX003 (ip), vehicle: Klucel (hydroxypropylcellulose) (HPC)
# [4] = dose: 200.0 mg/kg/injection, schedule: Q04DX003 (ip), vehicle: Klucel (hydroxypropylcellulose) (HPC)
# [5] = dose: 400.0 mg/kg/injection, schedule: Q01DX009 (ip), vehicle: Klucel (hydroxypropylcellulose) (HPC)
# [6] = dose: 400.0 mg/kg/injection, schedule: Q04DX003 (ip), vehicle: Klucel (hydroxypropylcellulose) (HPC)
# [7] = dose: 100.0 mg/kg/injection, schedule: Q01DX001 (ip), vehicle: saline
# [8] = dose: 100.0 mg/kg/injection, schedule: Q01DX009 (ip), vehicle: other
# [9] = dose: 200.0 mg/kg/injection, schedule: Q01DX009 (ip), vehicle: other
# [10] = dose: 400.0 mg/kg/injection, schedule: Q01DX009 (ip), vehicle: other
structure (smiles),measurement,setting,value
NC(=O)c1[nH]cnc1NN=NCCCl,T/C,"dose: 0.37 mg/kg/injection, schedule: Q01DX009 (ip), vehicle: saline with Tween-80",165 % of control
same,T/C,"dose: 0.75 mg/kg/injection, schedule: Q01DX001 (ip), vehicle: saline with Tween-80",106 % of control
same,T/C,"dose: 0.75 mg/kg/injection, schedule: Q01DX009 (ip), vehicle: saline with Tween-80",119 % of control
same,T/C,"dose: 1.5 mg/kg/injection, schedule: Q01DX009 (ip), vehicle: saline with Tween-80",122 % of control
same,T/C,"dose: 3.0 mg/kg/injection, schedule: Q01DX009 (ip), vehicle: saline with Tween-80",173 % of control
same,T/C,"dose: 3.12 mg/kg/injection, schedule: Q01DX009 (ip), vehicle: saline with Tween-80",172 % of control
same,T/C,"dose: 4.0 mg/kg/injection, schedule: Q01DX009 (ip), vehicle: saline with Tween-80",156 % of control and 189 % of control
same,T/C,"dose: 6.0 mg/kg/injection, schedule: Q01DX009 (ip), vehicle: saline with Tween-80",164 % of control and 240 % of control
same,T/C,"dose: 6.25 mg/kg/injection, schedule: Q01DX009 (ip), vehicle: saline with Tween-80",258 % of control
same,T/C,"dose: 9.0 mg/kg/injection, schedule: Q01DX009 (ip), vehicle: saline with Tween-80",191 % of control and 215 % of control
same,T/C,"dose: 12.5 mg/kg/injection, schedule: Q01DX001 (ip), vehicle: saline with Tween-80",247 % of control
same,T/C,"dose: 12.5 mg/kg/injection, schedule: Q01DX009 (ip), vehicle: saline with Tween-80",161 % of control
same,T/C,"dose: 17.0 mg/kg/injection, schedule: Q01DX001 (ip), vehicle: saline with Tween-80",215 % of control and 229 % of control
same,T/C,"dose: 25.0 mg/kg/injection, schedule: Q01DX001 (ip), vehicle: saline with Tween-80",207 % of control and 285 % of control and 313 % of control
same,T/C,"dose: 25.0 mg/kg/injection, schedule: Q01DX009 (ip), vehicle: saline with Tween-80",91 % of control
same,T/C,"dose: 37.0 mg/kg/injection, schedule: Q01DX001 (ip), vehicle: saline with Tween-80",171 % of control and 257 % of control
same,T/C,"dose: 50.0 mg/kg/injection, schedule: Q01DX001 (ip), vehicle: saline with Tween-80",197 % of control
CCCCCCCC(=O)Nc1ccc(F)cc1,T/C,"dose: 100.0 mg/kg/injection, schedule: Q04DX003 (ip), vehicle: acetone",95 % of control
same,T/C,"dose: 200.0 mg/kg/injection, schedule: Q04DX003 (ip), vehicle: acetone",95 % of control
same,T/C,"dose: 400.0 mg/kg/injection, schedule: Q04DX003 (ip), vehicle: acetone",90 % of control
N=C1SCc2ccccc21,T/C,[1],104 % of control
O=c1[nH]c2cc(Cl)c(Cl)cc2o1,T/C,"dose: 19.0 mg/kg/injection, schedule: Q01DX Z (ip), vehicle: carboxymethylcellulose (CMC)",95 % of control
same,T/C,"dose: 37.5 mg/kg/injection, schedule: Q01DX Z (ip), vehicle: carboxymethylcellulose (CMC)",95 % of control
same,T/C,"dose: 75.0 mg/kg/injection, schedule: Q01DX Z (ip), vehicle: carboxymethylcellulose (CMC)",96 % of control
same,T/C,[1],93 % of control
same,T/C,"dose: 100.0 mg/kg/injection, schedule: Q04DX003 (ip), vehicle: other",102 % of control
same,T/C,[2],93 % of control
same,T/C,"dose: 200.0 mg/kg/injection, schedule: Q04DX003 (ip), vehicle: other",95 % of control
same,T/C,"dose: 400.0 mg/kg/injection, schedule: Q04DX003 (ip), vehicle: other",97 % of control
NS(=O)(=O)c1c([N+](=O)[O-])ncn1C1OC(COC(=O)c2ccccc2)C(OC(=O)c2ccccc2)C1OC(=O)c1ccccc1 (stereo unspecified),T/C,"dose: 100.0 mg/kg/injection, schedule: Q01DX005 (ip), vehicle: saline",93 % of control
same,T/C,"dose: 200.0 mg/kg/injection, schedule: Q01DX005 (ip), vehicle: saline",95 % of control
Cc1ccc(CNc2ccc(C)cc2)cc1,T/C,[1],100 % of control
same,T/C,[3],98 % of control
same,T/C,[2],106 % of control
same,T/C,[4],100 % of control
same,T/C,[5],99 % of control
same,T/C,[6],95 % of control
c1ccc(N2CCNCC2)cc1,T/C,"dose: 5.0 mg/kg/injection, schedule: Q01DX001 (ip), vehicle: saline",98 % of control [middle of 5 runs]
same,T/C,"dose: 6.25 mg/kg/injection, schedule: Q01DX001 (ip), vehicle: saline",97 % of control
same,T/C,"dose: 6.25 mg/kg/injection, schedule: Q04DX003 (ip), vehicle: saline",99 % of control
same,T/C,"dose: 10.0 mg/kg/injection, schedule: Q01DX001 (ip), vehicle: saline",102 % of control [middle of 5 runs]
same,T/C,"dose: 12.5 mg/kg/injection, schedule: Q01DX001 (ip), vehicle: saline",92 % of control
same,T/C,"dose: 12.5 mg/kg/injection, schedule: Q04DX003 (ip), vehicle: saline",99 % of control
same,T/C,"dose: 20.0 mg/kg/injection, schedule: Q01DX001 (ip), vehicle: saline",98 % of control [middle of 5 runs]
same,T/C,"dose: 25.0 mg/kg/injection, schedule: Q01DX001 (ip), vehicle: saline",97 % of control
same,T/C,"dose: 25.0 mg/kg/injection, schedule: Q04DX003 (ip), vehicle: saline",96 % of control
same,T/C,"dose: 40.0 mg/kg/injection, schedule: Q01DX001 (ip), vehicle: saline",104 % of control [middle of 5 runs]
same,T/C,"dose: 80.0 mg/kg/injection, schedule: Q01DX001 (ip), vehicle: saline",92 % of control and 98 % of control and 115 % of control
same,T/C,[7],101 % of control
C=CCc1c(C)cc(C)c(C)c1O,T/C,"dose: 50.0 mg/kg/injection, schedule: Q01DX009 (sc), vehicle: olive oil, sesame oil, peanut oil",105 % of control
same,T/C,"dose: 50.0 mg/kg/injection, schedule: Q04DX003 (sc), vehicle: olive oil, sesame oil, peanut oil",113 % of control
same,T/C,"dose: 100.0 mg/kg/injection, schedule: Q01DX009 (sc), vehicle: olive oil, sesame oil, peanut oil",105 % of control
same,T/C,"dose: 100.0 mg/kg/injection, schedule: Q04DX003 (sc), vehicle: olive oil, sesame oil, peanut oil",106 % of control
same,T/C,"dose: 200.0 mg/kg/injection, schedule: Q01DX009 (sc), vehicle: olive oil, sesame oil, peanut oil",104 % of control
same,T/C,"dose: 200.0 mg/kg/injection, schedule: Q04DX003 (sc), vehicle: olive oil, sesame oil, peanut oil",101 % of control
O=C(Cc1ccc(N(CCCl)CCCl)cc1)NC1CCCC1,T/C,[3],117 % of control
same,T/C,[4],120 % of control
same,T/C,"dose: 266.0 mg/kg/injection, schedule: Q04DX003 (ip), vehicle: Klucel (hydroxypropylcellulose) (HPC)",107 % of control and 112 % of control
same,T/C,[6],102 % of control and 119 % of control
Cc1cccc(NC(=O)c2ccc(Cl)c(Cl)c2)c1C,T/C,[1],94 % of control
same,T/C,[3],93 % of control
same,T/C,[2],88 % of control
same,T/C,[4],91 % of control
same,T/C,[5],88 % of control
same,T/C,[6],95 % of control
O=C(Nc1ccc(CC2=NCCCN2)cc1)c1ccc(C(=O)Nc2ccc(CC3=NCCCN3)cc2)cc1,T/C,"dose: 0.5 mg/kg/injection, schedule: Q01DX Z (ip), vehicle: water",95 % of control
same,T/C,"dose: 1.0 mg/kg/injection, schedule: Q01DX Z (ip), vehicle: water",103 % of control
CC(=O)OCC(O)C(O)C(O)C(O)C=O (stereo unspecified) (tested in a mixture with another compound),T/C,"dose: 100.0 mg/kg/injection, schedule: Q04DX002 (ip), vehicle: Klucel (hydroxypropylcellulose) (HPC)",92 % of control
same,T/C,"dose: 200.0 mg/kg/injection, schedule: Q04DX002 (ip), vehicle: Klucel (hydroxypropylcellulose) (HPC)",103 % of control
same,T/C,"dose: 400.0 mg/kg/injection, schedule: Q04DX002 (ip), vehicle: Klucel (hydroxypropylcellulose) (HPC)",95 % of control
COC(=O)C1=C(C(=O)OC)C2OC1C(COC(C)=O)=C2COC(C)=O,T/C,"dose: 100.0 mg/kg/injection, schedule: Q04DX003 (ip), vehicle: saline",93 % of control
O=C1OCCN1/N=C\c1ccccc1,T/C,[8],116 % of control
same,T/C,[9],98 % of control
same,T/C,[10],97 % of control
CC1=C[P+](C)(Cc2ccccc2)CC1 (stereo unspecified),T/C,[7],100 % of control
O=C(Nc1ccc(Nc2ccccc2)cc1)c1ccc(F)cc1,T/C,"dose: 100.0 mg/kg/injection, schedule: Q01DX009 (ip), vehicle: gum acacia",91 % of control
same,T/C,"dose: 200.0 mg/kg/injection, schedule: Q01DX009 (ip), vehicle: gum acacia",96 % of control
same,T/C,"dose: 400.0 mg/kg/injection, schedule: Q01DX009 (ip), vehicle: gum acacia",94 % of control
CC(C)C(C(=O)c1ccccc1)C(c1ccccc1)c1ccccc1 (stereo unspecified),T/C,[8],103 % of control
same,T/C,[9],90 % of control
same,T/C,[10],103 % of control
CCOc1ccc(C(=O)CCN2CCOCC2)cc1,T/C,[7],100 % of control
same,T/C,"dose: 200.0 mg/kg/injection, schedule: Q01DX001 (ip), vehicle: saline",118 % of control
CCCCC[P+](c1ccccc1)(c1ccccc1)c1ccccc1,T/C,"dose: 12.5 mg/kg/injection, schedule: Q04DX002 (ip), vehicle: Klucel (hydroxypropylcellulose) (HPC)",109 % of control
same,T/C,"dose: 25.0 mg/kg/injection, schedule: Q04DX002 (ip), vehicle: Klucel (hydroxypropylcellulose) (HPC)",106 % of control
same,T/C,"dose: 50.0 mg/kg/injection, schedule: Q04DX002 (ip), vehicle: Klucel (hydroxypropylcellulose) (HPC)",109 % of control
